Data from patent US7914780B1, “Aminopeptidase A (APA) targeting peptides for the treatment of cancer” (Board of Regents, the University of Texas System, priority 2000, dated 2011).
Peptide text beside a SMILES is read from it.

Key:
[1] = system: HMECs; experiment: Endothelial cell growth assay (crystal violet); format: cell-based, human
Description: HMECs were seeded (˜10,000 cells/well) and allowed to attach for 24 hours in complete M199 medium (Sigma; St. Louis, Mo.). The indicated concentrations of […] (SEQ ID NO:2) or 1 mM negative control peptide were added to the cells in complete M199 medium. HMECs were then serially fixed in 2.5% glutaraldehyde, stained with 0.1% crystal violet in 20% methanol, and solubilized in 10% acetic acid. Cell growth was evaluated by measuring absorbance at 590 nm. A calibration curve with linear correlation between absorbance and cell number (103-105 HMECs) was used for the assay.
(§1) Because of the enzymatic inhibitory activity of APA-binding peptides, the inventors reasoned that they might affect endothelial cell function. The inventors correlated the effect of APA inhibition by the […] (SEQ ID NO:2) peptide on the migration and proliferation of endothelial cells. The inventors used human dermal microvascular endothelial cells (HMEC) in which the APA expression was verified by immunostaining with RC38 and the APA activity by its specific enzyme assay. […] (SEQ ID NO:2) peptide suppressed the migration of HMECs in the Boyden chamber assay (FIG. 3B). Suppression in cell migration was dose-dependent and commensurate with inhibition of APA enzymatic activity. […] Similarly, proliferation of HMECs was suppressed by […] (SEQ ID NO:2) (˜40% at 1 mM) in a dose-dependent manner (FIG. 3C).

[2] = target: aminopeptidase N (Homo sapiens, UniProt P15144); experiment: Aminopeptidase N enzymatic activity; format: biochemical
[3] = system: HMECs; experiment: Chemotaxic (Boyden chamber) cell migration assay; format: cell-based, human
Description: Cell migration assays were performed in a 48-well Boyden chamber (NeuroProbe; Gaithersburg, Md.) as described (Bussolino et al., 1995). Indicated concentrations of […] (SEQ ID NO:2) peptide or negative control peptide (1 mM) were placed in the lower chamber compartment in complete M199 medium. Subconfluent HMECs were harvested and 1×10^5 cells were seeded in the upper chamber compartment in complete M199 medium. Cells were allowed to migrate for 5 h at 37° C. in a humidified 5% CO2 atmosphere. Filter was removed and cells on the upper side were scraped off. Migrated cells were fixed and Giemsa-stained.
as §1

[4] = system: HMECs; experiment: Three-dimensional cell culture on Matrigel (cord/tube formation); format: cell-based, human
Description: Matrigel (BD Biosciences; Bedford, Mass.) was added to 48-well tissue culture plates and allowed to solidify at 37° C. HMECs (˜10^4 cells) were added to the wells and allowed to adhere to the Matrigel for 30 minutes at 37° C. Cell medium was replaced containing the indicated concentrations of […] (SEQ ID NO:2) or a negative control peptide (both at 1 mM) in complete medium. Plates were examined and photographed after 16 hours.
To determine whether inhibition of APA enzyme activity with […] (SEQ ID NO:2) peptide would affect angiogenesis, the effect of the peptide was tested in vitro and in vivo. First, the inventors evaluated the ability of HMECs to differentiate into capillary-like structures characteristic of angiogenesis in the presence of […] (SEQ ID NO:2) on a gel of reconstituted basement membrane matrix (Matrigel). The formation of cord/tube-like structures was progressively impaired by increasing concentrations of […] (SEQ ID NO:2) peptide, relative to the network formation in controls without peptide (FIG. 4A, upper left panel) or with an unrelated control peptide at 1 mM concentration (FIG. 4A, upper right panel). The number and length of capillary-like branching structures was reduced at 0.3 mM […] […]

[5] = system: VEGF-induced CAM neovascularization; experiment: Chick embryo chorioallantoic membrane (CAM) assay; format: in vivo, chicken
Description: Fertilized chicken eggs were incubated in constant humidity at 37° C. for 3 days. Two to three ml of albumin was removed through a square opening to detach the developing CAM. The opening was sealed with a glass plate and the eggs were incubated for 5 days. […] […] CAMs were examined daily until day 12, photographed in ovo with a stereomicroscope and emerging capillaries were counted (Ribatti et al., 1997).
In this in vivo model, neovascularization is stimulated with VEGF adsorbed on to a gelatin sponge placed on the CAM. […] CAMs were examined on E12 and neovascularization was quantified by counting the number of emerging capillaries (FIG. 4B). Significant induction of neovascularization (57.0±1.41 blood vessels) was found when a sponge with VEGF was placed on the CAM compared to a sponge with no growth factors (12.0±2.8 blood vessels; t-test, P<0.01). […]

[6] = system: EF43-fgf4-derived tumors; experiment: Experimental therapy of EF43-fgf4-derived tumors; format: in vivo, Balb/c mice
Description: For experimental therapy, Balb/c mice bearing EF43-fgf4-derived tumors were established and tumor volumes determined as described (Deroanne et al., 1997; Hajitou et al., 2001). Treatments in tumor-bearing mice were started 5 (peptides) to 7 days (antibodies) after cell inoculation (10^5 cells/mouse). Reagents were administered by ip and sc routes.
Tumor-bearing mice received vehicle, [sequence] (SEQ ID NO:2) or control peptides and tumors were monitored (FIG. 7B).
The inventors used an established regimen of two anti-APA monoclonal antibodies (ASD-37/41) with synergistic APA inhibitory properties (Assmann et al., 1992, Mentzel et al., 1999) on the same animal model. Tumor-bearing mice received vehicle, ASD-37/41, or isotype control IgG and tumors were monitored (FIG. 7C).

[7] = target: T1, APA-transfected SK-RC-49 cells (Homo sapiens, UniProt Q07075); experiment: Cell surface panning of CX3CX3CX3C phage display library on APA-transfected cells; format: binding; conditions: for Round 2 (%) - share of randomly selected phage clones displaying the sequence: after second round of panning on SK-RC-49/APA cells
T1 construct: stably transfected with a mammalian expression vector encoding the full-length APA cDNA; expressed in transfected cells; host or cells: SK-RC-49 renal carcinoma cells (SK-RC-49/APA)
Description: Briefly, 10^10 transducing units (TU) of a CX3CX3CX3C (SEQ ID NO:14; C, cysteine; X, any amino acid residue) phage display random library are pre-absorbed on SK-RC-49 parental cells. The pre-cleared CX3CX3CX3C phage library (˜10^10 TU) is added to 106 detached APA-transfected SK-RC-49 cells in binding medium (20 mM HEPES, 2% FCS in DMEM). Cell panning was performed at 4° C. to minimize post-binding events such as receptor-mediated internalization (Giordano et al., 2001). Cells were washed with binding medium and cell bound phage were recovered and amplified by infection of K91Kan E. coli. Serial dilutions were plated on Luria-Bertani (LB) agar plates with tetracycline and kanamycin. The number of TU was determined by bacterial colony counting.
The inventors pre adsorbed 1010 transducing units (TU) of a CX3CX3CX3C (C, cysteine; X, any amino acid residue; SEQ ID NO:14) phage display random library on SK-RC-49 parental cells. Next, the pre-cleared CX3CX3CX3C (SEQ ID NO:14) phage library (˜1010 TU) was added to 106 detached APA-transfected SK-RC-49 cells in binding medium (20 mM HEPES, 2% FCS in DMEM). Cell panning was performed at 4° C. to minimize post-binding events such as receptor-mediated internalization (Giordano et al., 2001). Cells were washed with binding medium and cell bound phage were recovered and amplified by infection of K91 Kan E. coli. Serial dilutions were plated on Luria-Bertani (LB) agar plates with tetracycline and kanamycin. The number of TU was determined by bacterial colony counting.
To identify peptides capable of binding to APA, the inventors screened APA-transfected cells with a phage display library (Smith and Scott, 1993). The inventors stably transfected SK-RC-49 renal carcinoma cells with a vector expressing full-length APA cDNA. APA functionality was verified in transfected cells by an enzyme activity assay specific for APA.

[8] = target: T2, SK-RC-49/APA cells (Homo sapiens, UniProt Q07075); experiment: Phage binding assay on SK-RC-49/APA cells versus SK-RC-49 cells; conditions: for Phage binding to SK-RC-49/APA cells relative to SK-RC-49 cells: individual phage clones
T2 construct: stably transfected with a mammalian expression vector encoding the full-length APA cDNA; expressed in transfected cells; host or cells: SK-RC-49 renal carcinoma cells (SK-RC-49/APA)
Description: Binding assays were performed on cells with 109 TU phage input. Increasing concentrations of synthetic […] (SEQ ID NO:2) or control peptides were used to evaluate competitive inhibition of phage binding. APA was immunocaptured on microtiter wells with RC38 and incubated with 109 TU of phage in 3% BSA in PBS. Wells were washed with 1% BSA, 0.01% Tween-20 in PBS and phage were recovered by infection of K91kan E. coli. Serial dilutions were plated on LB agar plates containing tetracycline and kanamycin. The number of TU was determined by bacterial colony counting.
Phage displaying enriched peptide motifs were tested individually for APA binding. Phage displaying the inserts […] (SEQ ID NO:3), […] (SEQ ID NO:1) or […] The inventors synthesized peptides containing APA-binding motifs (consensus sequence […] (SEQ ID NO:2); Table 1). Binding of phage displaying […] Binding of […] Whether the selected peptides would bind to the isolated APA protein was also evaluated. […] The inventors used phage displaying […] (SEQ ID NO:3), […] (SEQ ID NO:4), or […] (SEQ ID NO:1) in binding assays to the immunocaptured APA.

[9] = system: MDA-MB-435 human breast carcinoma-derived tumor xenografts; experiment: Tumor homing of phage in vivo; design: species or system nude mice; conditions: intravenous
Description: Nude mice bearing tumor xenografts derived from MDA-MB-435 human breast cancer cells were generated as described (Arap et al., 1998). 109 TU of […] (SEQ ID NO:8)-displaying phage or fd-tet phage were injected intravenously to anesthetized mice. Phage were allowed to circulate for 5 minutes and the animals were perfused through the left ventricle of the heart with DMEM. The tumor and control organs were dissected and equal amounts of tissue were homogenized. Homogenates were washed with ice-cold DMEM containing a protease inhibitor cocktail (Sigma; St. Louis, Mo.) and 0.1% BSA. Tissue-bound phage were recovered as described above the cell panning. Tissue samples from the injected animals were fixed, sectioned at 5 μm and stained with an anti-M13 antibody.
The inventors next evaluated the ability of APA binding peptides to home to tumor blood vessels in vivo. Phage were administered intravenously to nude mice bearing human breast carcinoma MDA-MB-435-derived xenografts. Phage homing was quantified by recovery from tissue homogenates by bacterial infection. […] […] Homing of […] (SEQ ID NO:3) phage to tumor vasculature was confirmed by immunohistochemical staining of phage on tissue sections.

[10] = 1 mM peptide in VEGF-adsorbed sponge, E12
[11] = competition with synthetic peptide
[12] = negative control peptide (1 mM)

T1 sequence (Q07075 whole entry): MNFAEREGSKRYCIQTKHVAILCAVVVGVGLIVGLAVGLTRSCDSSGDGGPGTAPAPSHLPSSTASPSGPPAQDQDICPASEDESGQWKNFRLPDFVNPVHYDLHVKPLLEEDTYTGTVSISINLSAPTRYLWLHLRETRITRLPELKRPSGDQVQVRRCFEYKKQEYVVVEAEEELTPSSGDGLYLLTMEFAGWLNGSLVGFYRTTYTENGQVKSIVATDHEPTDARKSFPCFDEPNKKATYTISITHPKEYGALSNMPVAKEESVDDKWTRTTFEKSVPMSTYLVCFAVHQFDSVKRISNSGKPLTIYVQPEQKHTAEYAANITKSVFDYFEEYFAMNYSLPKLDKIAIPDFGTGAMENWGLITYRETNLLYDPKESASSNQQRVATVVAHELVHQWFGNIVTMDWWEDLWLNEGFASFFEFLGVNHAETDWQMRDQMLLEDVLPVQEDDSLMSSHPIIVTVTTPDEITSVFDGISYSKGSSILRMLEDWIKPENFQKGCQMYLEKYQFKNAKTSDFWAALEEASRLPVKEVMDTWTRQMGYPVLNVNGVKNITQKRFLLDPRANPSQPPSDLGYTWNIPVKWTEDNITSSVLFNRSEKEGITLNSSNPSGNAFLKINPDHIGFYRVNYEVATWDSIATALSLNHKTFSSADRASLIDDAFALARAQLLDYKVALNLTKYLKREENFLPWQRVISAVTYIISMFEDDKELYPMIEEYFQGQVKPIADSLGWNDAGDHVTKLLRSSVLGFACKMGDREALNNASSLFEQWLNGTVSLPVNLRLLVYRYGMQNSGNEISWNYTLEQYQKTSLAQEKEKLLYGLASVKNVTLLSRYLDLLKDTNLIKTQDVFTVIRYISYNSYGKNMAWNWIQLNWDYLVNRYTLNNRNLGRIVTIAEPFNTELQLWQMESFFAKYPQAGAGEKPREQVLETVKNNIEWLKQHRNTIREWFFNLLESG
T2 sequence (Q07075 whole entry): as above
aminopeptidase N, sequence (P15144 whole entry, species assumed): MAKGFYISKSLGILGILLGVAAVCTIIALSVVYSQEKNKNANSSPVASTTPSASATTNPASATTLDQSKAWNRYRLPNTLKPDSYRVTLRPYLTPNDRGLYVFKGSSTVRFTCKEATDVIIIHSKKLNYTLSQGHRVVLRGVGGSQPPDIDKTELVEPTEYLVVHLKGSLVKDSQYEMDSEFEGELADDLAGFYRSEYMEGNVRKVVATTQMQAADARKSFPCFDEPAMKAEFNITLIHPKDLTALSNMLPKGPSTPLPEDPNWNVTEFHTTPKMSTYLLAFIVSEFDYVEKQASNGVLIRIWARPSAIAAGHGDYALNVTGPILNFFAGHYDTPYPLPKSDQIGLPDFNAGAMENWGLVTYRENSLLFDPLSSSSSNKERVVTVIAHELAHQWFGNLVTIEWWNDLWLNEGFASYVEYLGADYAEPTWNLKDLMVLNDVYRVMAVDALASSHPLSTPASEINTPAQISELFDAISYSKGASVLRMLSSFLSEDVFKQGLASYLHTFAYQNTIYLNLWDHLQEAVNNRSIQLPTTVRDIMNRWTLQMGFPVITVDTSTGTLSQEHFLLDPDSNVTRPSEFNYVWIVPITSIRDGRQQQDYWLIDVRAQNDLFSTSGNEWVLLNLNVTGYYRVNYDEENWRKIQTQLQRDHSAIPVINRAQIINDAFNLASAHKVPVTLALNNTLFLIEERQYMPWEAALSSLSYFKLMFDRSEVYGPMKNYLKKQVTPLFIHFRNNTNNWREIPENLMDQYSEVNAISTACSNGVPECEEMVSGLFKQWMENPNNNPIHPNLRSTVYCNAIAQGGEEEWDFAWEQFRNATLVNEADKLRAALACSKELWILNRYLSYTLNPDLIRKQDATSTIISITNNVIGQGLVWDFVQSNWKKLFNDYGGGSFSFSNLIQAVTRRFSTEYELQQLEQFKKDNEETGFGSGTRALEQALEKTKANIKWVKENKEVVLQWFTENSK

## CC[C@H](C)[C@H](NC(=O)[C@H](CO)NC(=O)[C@H](CCC(=O)O)NC(=O)[C@H](CS)NC(=O)[C@H](CCC(=O)O)NC(=O)[C@H](CCCNC(=N)N)NC(=O)[C@@H]1CCCN1C(=O)[C@@H](N)CS)C(=O)N[C@@H](CS)C(=O)O (H-CPRECESIC-OH)
[1]; 0.3 mM peptide
  Inhibition of cell proliferation: Inhibition of cell proliferation was also observed
[1]; 1 mM peptide
  Suppression of proliferation of HMECs: ~40%
[1]; peptide concentrations lower than 0.3 mM
  Effect on cell proliferation: no significant effect
[2]
  Effect on enzymatic activity of aminopeptidase N: did not affect
[3]; 100 μM peptide
  Inhibition of cell migration: significant inhibition
[3]; 1 mM peptide, 5 h
  Suppression in cell migration: Up to 60%
[4]; 0.3 mM peptide
  Number and length of capillary-like branching structures: reduced
[4]; 1 mM peptide
  Cell interconnections and capillary network organization: severely lost
[5]; 0.1 mM and 0.3 mM peptide
  Effect on number or branching of the growing blood vessels: did not affect
[5]; [10]
  Inhibition of VEGF-induced CAM neovascularization: 40%
  Number of emerging capillaries: 35.5±1.4 blood vessels
[6]; peptides 250 μg/mouse/dose, end of two weeks
  Tumor volume: 1,366±190 mm^3

## CAVACWADCQLGC
[7]
  Round 2 (%) - share of randomly selected phage clones displaying the sequence: 5%

## CGTGCAVECEVVC
[7]
  Round 2 (%) - share of randomly selected phage clones displaying the sequence: 5%

## CLGQCASICVNDC
[7]
  Round 2 (%) - share of randomly selected phage clones displaying the sequence: 5%
[8]; [11]
  Effect of synthetic […] peptide on phage binding to SK-RC-49/APA cells: not affected by the synthetic peptide
[8]
  Phage binding to SK-RC-49/APA cells relative to SK-RC-49 cells: preferentially bound to SK-RC-49/APA cells

## CPKVCPRECESNC (phage-displayed)
[9]; tumor versus control organs (brain)
  Phage homing by recovery from tissue homogenates: enriched in tumors compared to control organs
[9]; tumor versus normal brain blood vessels
  Phage homing by immunohistochemical staining of tissue sections: Strong phage staining was observed in tumor blood vessels
[7]
  Round 2 (%) - share of randomly selected phage clones displaying the sequence: 5%
[8]; [11]
  Effect of synthetic […] peptide on phage binding to SK-RC-49/APA cells: inhibited by the synthetic peptide
[8]
  Phage binding to SK-RC-49/APA cells relative to SK-RC-49 cells: preferentially bound to SK-RC-49/APA cells

## CPRECESN
[6]; mouse, in vivo
  Efficacy in vivo: showed efficacy in vivo

## CSGLCTVQCLEGC (phage-displayed)
[7]
  Round 2 (%) - share of randomly selected phage clones displaying the sequence: 5%

## CSMMCLEGCDDWC (phage-displayed)
[7]
  Round 2 (%) - share of randomly selected phage clones displaying the sequence: 5%

## CYNLCIRECESICGADGACWTWCADGCSRSC (phage-displayed)
[7]
  Round 2 (%) - share of randomly selected phage clones displaying the sequence: 50%
[7]; after third round of panning on SK-RC-49/APA cells
  Round 3 (%) - share of randomly selected phage clones displaying the sequence: 100%
[8]; [11]
  Effect of synthetic CPRECESIC peptide on phage binding to SK-RC-49/APA cells: inhibited by the synthetic peptide
[8]
  Phage binding to SK-RC-49/APA cells relative to SK-RC-49 cells: preferentially bound to SK-RC-49/APA cells

## GACVRLSACGA [negative control peptide, unrelated synthetic peptide used as a negative control unless otherwise indicated, reference compound]
[1]; [12]
  Effect on cell proliferation: affected neither cell migration nor proliferation
[3]; [12]
  Effect on cell migration: affected neither cell migration nor proliferation
[5]; [10]
  Number of emerging capillaries: 56.5±2.12 blood vessels
